In US8119563B2, “N-substituted azacycles” (FMC Corporation, priority 2003, dated 2012):

System: tobacco budworm (Heliothis virescens [Fabricius])
Test: surface-treated diet test, insecticidal activity against tobacco budworm
Format: in vivo
Design: mortality: concentration or dose not given beside the values
Details: 0.25 millimoles of candidate insecticide on the surface of the diet, second instar larvae, five-day exposure
Outline: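 Wheat germ artificial diet surface-treated with compound from 50 mM DMSO stock diluted 1:7 in 1:1 water/acetone (0.25 millimolar on diet), or lower-rate dilutions; DMSO-only controls. One second-instar larva per well, 25° C, 60% RH, 14 h light, five days; percent weight inhibition versus untreated and percent mortality scored.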

[1] = compared to total number of insects infested
[2] = inhibition of insect weight relative to untreated controls

## OC1(C(c2ccc(OC(F)(F)F)cc2)c2ccc(C3OCCO3)cc2)CCN(Cc2ccc(Oc3ccccn3)cc2)CC1 (racemic) [Compound 295]
[1]
  Percent Mortality: 100%
[2]
  Percent Growth Inhibition: 100%

## CON=C(Cl)c1ccc(C[N+]2([O-])CCC(O)(C(c3ccc(OC(F)(F)F)cc3)c3ccc(OC(F)(F)F)cc3)CC2)cc1 (stereo not drawn) [Compound 355]
[1]
  Percent Mortality: 100%
[2]
  Percent Growth Inhibition: 100%

## [O-][N+]1(CCCOc2ccc(Cl)cc2)CCC(O)(C(c2ccc(OC(F)(F)F)cc2)c2ccc(OC(F)(F)F)cc2)CC1 (stereo not drawn) [Compound 481]
[1]
  Percent Mortality: 100%
[2]
  Percent Growth Inhibition: 100%

## CCON=Cc1ccc(C[N+]2([O-])CCC(O)(C(c3ccc(OC(F)(F)F)cc3)c3ccc(Cl)cc3Cl)CC2)cc1 (stereo not drawn) [Compound 453]
[1]
  Percent Mortality: 100%
[2]
  Percent Growth Inhibition: 100%

## CC1(C)COC(c2ccc(CN3CCC(O)(C(c4ccc(OC(F)(F)F)cc4)c4ccc(OC(F)(F)F)cc4)CC3)cc2)OC1 [Compound 280]
[1]
  Percent Mortality: 100%
[2]
  Percent Growth Inhibition: 100%

## OC1(C(c2ccc(OC(F)(F)F)cc2)c2ccc(OC(F)(F)F)cc2)CCN(CCOc2ccc(Br)cc2)CC1 [Compound 477]
[1]
  Percent Mortality: 100%
[2]
  Percent Growth Inhibition: 100%

## OC1(C(c2ccc(OC(F)F)cc2)c2ccc(OC(F)(F)F)cc2)CCN(Cc2ccc(Oc3ccccn3)cc2)CC1 (racemic) [Compound 269]
[1]
  Percent Mortality: 100%
[2]
  Percent Growth Inhibition: 100%

## [O-][N+]1(Cc2ccc(Oc3ccccn3)cc2)CCC(O)(C(c2ccc(OC(F)(F)F)cc2)c2cc(Cl)cc(Cl)c2)CC1 (stereo not drawn) [Compound 457]
[1]
  Percent Mortality: 100%
[2]
  Percent Growth Inhibition: 100%

## OC1(C(c2ccc(OC(F)(F)F)cc2)c2ccc(OC(F)(F)F)cc2)CCN(CCCOc2ccc(Cl)cc2)CC1 [Compound 473]
[1]
  Percent Mortality: 100%
[2]
  Percent Growth Inhibition: 100%

## O=S(=O)([O-])C(F)(F)C(F)(F)C(F)(F)C(F)(F)C(F)(F)C(F)(F)C(F)(F)C(F)(F)C(F)(F)F.OC1(C(c2ccc(C(F)(F)F)cc2)c2ccc(C(F)(F)F)cc2)CC[N+](O)(Cc2ccc(Oc3ccc(Cl)nn3)cc2)CC1 (stereo not drawn) [Compound 520]
[1]
  Percent Mortality: 100%
[2]
  Percent Growth Inhibition: 100%

## OC(c1ccc(Cl)cc1)c1ccc(CN2CCC(O)(C(c3ccc(OC(F)(F)F)cc3)c3ccc(OC(F)(F)F)cc3)CC2)cc1 (racemic) [Compound 278]
[1]
  Percent Mortality: 100%
[2]
  Percent Growth Inhibition: 100%

## OC1(C(c2ccc(OC(F)(F)F)cc2)c2ccc(OC(F)(F)F)cc2)CCN(Cc2ccc(Oc3ccccn3)cc2)CC1 [Compound 21, 4-{bis[4-(trifluoromethoxy)phenyl]methyl}-1-[(4-(2-pyridyloxy)phenyl)methyl]piperidin-4-ol]
Heliothis virescens, 120 h, compared to total number of insects infested, read-out: Percent Mortality
  mortality: 100%
Heliothis virescens, 120 h, inhibition of insect weight relative to untreated controls, read-out: Percent Growth Inhibition
  pest or weed control at 0.25 mmol/well: 100%

## OC1(C(c2ccccc2F)c2ccccc2F)CCN(Cc2ccc(Oc3ncccn3)cc2)CC1 [Compound 434]
[1]
  Percent Mortality: 0%
[2]
  Percent Growth Inhibition: 56%

## [O-][N+]1(Cc2ccc(Oc3ccccn3)cc2)CCC2(CC1)OC2(c1ccc(OC(F)(F)F)cc1)c1ccc(OC(F)(F)F)cc1 (stereo not drawn) [Compound 431]
[1]
  Percent Mortality: 100%
[2]
  Percent Growth Inhibition: 100%

## CC1(C)[C@@H]2CCC1(CS(=O)(=O)[O-])C(=O)C2.CCON=Cc1ccc(C[N+]2(O)CCC(O)(C(c3ccc(OC(F)(F)F)cc3)c3ccc(OC(F)(F)F)cc3)CC2)cc1 (stereo not drawn) [Compound 507]
[1]
  Percent Mortality: 100%
[2]
  Percent Growth Inhibition: 100%

## [O-][N+]1(Cc2ccc(Oc3ccccn3)cc2)CCC(O)(C(c2ccc(OC(F)F)cc2)c2ccc(OC(F)(F)F)cc2)CC1 (stereo not drawn) [Compound 347]
[1]
  Percent Mortality: 100%
[2]
  Percent Growth Inhibition: 100%

## [O-][N+]1(Cc2ccc(Oc3ccccn3)cc2)CCC(O)(C(c2ccc(C(F)(F)F)cc2)c2ccc(C(F)(F)F)cc2)CC1 (stereo not drawn) [Compound 111]
[1]
  Percent Mortality: 100%
[2]
  Percent Growth Inhibition: 100%

## OC1(C(c2ccc(Cl)c(F)c2)c2ccc(Cl)c(F)c2)CCN(Cc2ccc(Oc3ncccn3)cc2)CC1 [Compound 4]
[1]
  Percent Mortality: 100%
[2]
  Percent Growth Inhibition: 100%
